Test systems include A498 renal; CCRF-CEM leukemia; HOP-92 NSCLC; K-562 leukemia; MALME-3M melanoma; RPMI-8226 leukemia; RXF 393 renal; SF-539 CNS; SK-MEL-5 melanoma; SK-OV-3 ovarian; SNB-19 CNS; T-47D breast.
Holding throughout (assay): NCI tumour cell line growth inhibition, 48 h

Among the data in PubChem BioAssay (NCI) are TGI and GI50 values, retold here.

Where “and” joins values, the source holds several entries; their conditions need not be identical. Equal values may be shown once.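 Growth conditions: 96-well plates. Treatment: test compound, 48 hours, 5 concentrations. Analysis: linear interpolation between bracketing concentrations; unreached endpoints set to highest concentration. GI50: concentration for 50% inhibition of growth. TGI is the concentration that stops growth completely.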

In the case of `CC1(C)OCC(C2OC(N3O[C@H](CI)C[C@@H]3c3ccccc3)C3OC(C)(C)OC23)O1` (some centres not stated), the TGI with A498 renal, with CCRF-CEM leukemia, in the test with HOP-92 NSCLC, in the test on K-562 leukemia, in the test on MALME-3M melanoma and in the test on RPMI-8226 leukemia was over 100 µM in each case. For the same compound, the TGI in the test with RXF 393 renal, in the test on SF-539 CNS, in the test on SK-MEL-5 melanoma, with SK-OV-3 ovarian, in the test on SNB-19 CNS and in the test with T-47D breast was over 100 µM in each case.
As for `CC(=O)O[C@H]1C(=O)[C@@]2(C)[C@H]([C@H](OC(=O)C3CCCCC3)[C@]3(O)C[C@H](OC(=O)[C@H](O)[C@@H](NC(=O)C4CCCCC4)C4CCCCC4)C(C)=C1C3(C)C)[C@]1(OC(C)=O)CO[C@@H]1C[C@@H]2O`, the TGI is 6.6 µM with A498 renal; 8.78 µM with CCRF-CEM leukemia; 4.72 µM in the test with HOP-92 NSCLC; 8.96 µM in the test with K-562 leukemia; 4.96 µM in the test with MALME-3M melanoma; 3.67 µM in the test on RPMI-8226 leukemia. Also, the TGI was found to be 0.555 µM in the test on RXF 393 renal; 0.766 µM in the test with SF-539 CNS; 1.12 µM in the test with SK-MEL-5 melanoma; 19.2 µM in the test with SK-OV-3 ovarian; 13.3 µM in the test on SNB-19 CNS; 3.4 µM in the test on T-47D breast.
Take `CC(=O)CCC[C@@H](C)[C@@H]1O[C@H]([C@@]2(C)CCC(=O)O2)C[C@H]2C(CSc3ccccc3)C(=O)O[C@@H]12` (some centres not stated): the TGI is over 88.9 µM in the test on A498 renal; 24.9 µM in the test with CCRF-CEM leukemia; 39.1 µM in the test with HOP-92 NSCLC; over 100 µM in the test with K-562 leukemia; over 42.5 µM in the test with MALME-3M melanoma; 52.1 µM in the test on RPMI-8226 leukemia. The TGI with RXF 393 renal is 15.9 µM; in the test with SF-539 CNS, 36.9 µM; in the test with SK-MEL-5 melanoma, over 54.3 µM; with SK-OV-3 ovarian, over 100 µM; in the test on SNB-19 CNS, over 100 µM; with T-47D breast it was 38 µM.
With `Cc1ccc(S(=O)(=O)N2CCCCN(S(=O)(=O)c3ccc(C)cc3)Cc3ccccc3OCCOCCOc3c4cccc3Cc3cccc5c3OCCOCCOc3ccccc3CN(S(=O)(=O)c3ccc(C)cc3)CCCN(S(=O)(=O)c3ccc(C)cc3)Cc3ccccc3OCCOCCOc3c(cccc3C4)Cc3cccc(c3OCCOCCOc3ccccc3C2)C5)cc1`, the TGI with A498 renal, in the test on CCRF-CEM leukemia, in the test with HOP-92 NSCLC, in the test with K-562 leukemia, with MALME-3M melanoma and in the test on RPMI-8226 leukemia was over 100 µM throughout. Also, the TGI with RXF 393 renal, in the test with SF-539 CNS, in the test with SK-MEL-5 melanoma, in the test with SK-OV-3 ovarian, in the test on SNB-19 CNS and in the test with T-47D breast was over 100 µM throughout.
Take `CCOC(=O)CCC(NC(=O)c1ccc(Nc2nc3cc(C(F)(F)F)ccc3nc2-c2ccccc2)cc1)C(=O)OCC` (configuration not stated): the TGI in the test with A498 renal, in the test on CCRF-CEM leukemia, in the test on HOP-92 NSCLC, in the test with K-562 leukemia, in the test with MALME-3M melanoma and in the test on RPMI-8226 leukemia was over 100 µM in each case. The TGI in the test on RXF 393 renal, with SF-539 CNS, in the test on SK-MEL-5 melanoma, in the test on SK-OV-3 ovarian, with SNB-19 CNS and with T-47D breast was over 100 µM each time.
With `C=C1C(=O)C23CC1C[C@H](OC(C)=O)C2C1(C)C(OC(C)=O)C[C@H](O)C(C)(C)[C@H]1C(O)[C@@H]3OC(C)=O` (some centres not stated), the TGI came to 28.4 µM in the test on A498 renal; 8.25 µM with CCRF-CEM leukemia; 24.8 µM in the test on HOP-92 NSCLC; 10.9 µM in the test with K-562 leukemia; 19.9 µM in the test with MALME-3M melanoma; 16.4 µM in the test on RPMI-8226 leukemia. Moreover, the TGI with RXF 393 renal came to 19.9 µM; in the test with SF-539 CNS it was 7.54 µM; in the test with SK-MEL-5 melanoma, 27.9 µM; in the test on SK-OV-3 ovarian, 56.5 µM; in the test with SNB-19 CNS it was 44.3 µM; in the test with T-47D breast, 24.8 µM.
Consider `Cn1c2nc3ccccc3c-2cc2ccccc21`, for which the GI50 with A498 renal is 5.12 µM and 18.4 µM; with HOP-92 NSCLC, 3.06 µM and 11.7 µM; in the test on MALME-3M melanoma, 2.86 µM and 18.5 µM; in the test on RPMI-8226 leukemia, 2.45 µM and 7.55 µM; in the test on RXF 393 renal, 3.45 µM and 7.68 µM; with SK-MEL-5 melanoma, 4 µM and 8.37 µM. The GI50 in the test on SNB-19 CNS is 5.94 µM and 14.7 µM. For the same compound, the TGI in the test on A498 renal is 17.1 µM and 43.5 µM; with CCRF-CEM leukemia, > 43.5 µM and 25 µM; in the test with HOP-92 NSCLC, 30.7 µM and 46.7 µM; with K-562 leukemia, > 100 µM and 39.7 µM; in the test with MALME-3M melanoma, 12.8 µM and > 100 µM; in the test on RPMI-8226 leukemia, 10.2 µM and 39 µM. Moreover, the TGI is 14.8 µM and 20.1 µM in the test on RXF 393 renal; 16 µM and 17.5 µM in the test on SF-539 CNS; 16.8 µM and 24 µM with SK-MEL-5 melanoma; over 100 µM in the test on SK-OV-3 ovarian; over 100 µM with SNB-19 CNS; over 100 µM in the test on T-47D breast.
In the case of `O=C1CC2(CCC(O)(c3ccc(Cl)cc3)C(C(=O)c3ccc(Cl)cc3)C2)C(=O)c2ccccc2N1` (configuration not stated), the TGI with A498 renal is 52.6 µM; in the test on CCRF-CEM leukemia, 26.6 µM; with HOP-92 NSCLC, 8.31 µM; with K-562 leukemia it was over 100 µM; with MALME-3M melanoma, over 68.4 µM; with RPMI-8226 leukemia, over 100 µM. Moreover, the TGI in the test on RXF 393 renal is 22.3 µM; in the test with SF-539 CNS, 11.2 µM; in the test on SK-MEL-5 melanoma, 43.4 µM; in the test with SK-OV-3 ovarian, 35.1 µM; with SNB-19 CNS it was 6.71 µM; in the test on T-47D breast it was over 72.3 µM.
Consider `O=c1c2cccnc2nc2ccc3c[nH][nH]c3c12`, for which the TGI with A498 renal, in the test on CCRF-CEM leukemia, in the test with HOP-92 NSCLC, in the test on K-562 leukemia, in the test on MALME-3M melanoma and in the test with RPMI-8226 leukemia was over 10 µM in each case. Besides, the TGI in the test on RXF 393 renal, with SF-539 CNS, in the test with SK-MEL-5 melanoma, with SK-OV-3 ovarian, with SNB-19 CNS and in the test with T-47D breast was over 10 µM each time.
As to `CC(C)(C)N1NC1C1NN1C(C)(C)C` (configuration not stated), the TGI in the test with A498 renal, in the test on CCRF-CEM leukemia, in the test on HOP-92 NSCLC, in the test with K-562 leukemia, with MALME-3M melanoma and with RPMI-8226 leukemia was over 100 µM in each case. In addition, the TGI with RXF 393 renal, in the test with SF-539 CNS, with SK-MEL-5 melanoma, in the test with SK-OV-3 ovarian, with SNB-19 CNS and with T-47D breast was over 100 µM each time.
